Data on 20 molecules can be found in PMC4941420, “A Rational Approach for the Identification of Non-Hydroxamate HDAC6-Selective Inhibitors” (Scientific Reports, 2016).

Usually inhibition stands for the drop in the measured response relative to a control, in per cent. By IC50 is commonly meant the concentration at which inhibition is half-maximal. Low readings indicate higher potency, high ones lower potency.

One test concerns the target T1, HDAC6 (Homo sapiens, UniProt Q9UBN7).
T1 construct: purchased Sigma Aldrich or Reaction Biology Corporation
T1 sequence (Q9UBN7 1-1215): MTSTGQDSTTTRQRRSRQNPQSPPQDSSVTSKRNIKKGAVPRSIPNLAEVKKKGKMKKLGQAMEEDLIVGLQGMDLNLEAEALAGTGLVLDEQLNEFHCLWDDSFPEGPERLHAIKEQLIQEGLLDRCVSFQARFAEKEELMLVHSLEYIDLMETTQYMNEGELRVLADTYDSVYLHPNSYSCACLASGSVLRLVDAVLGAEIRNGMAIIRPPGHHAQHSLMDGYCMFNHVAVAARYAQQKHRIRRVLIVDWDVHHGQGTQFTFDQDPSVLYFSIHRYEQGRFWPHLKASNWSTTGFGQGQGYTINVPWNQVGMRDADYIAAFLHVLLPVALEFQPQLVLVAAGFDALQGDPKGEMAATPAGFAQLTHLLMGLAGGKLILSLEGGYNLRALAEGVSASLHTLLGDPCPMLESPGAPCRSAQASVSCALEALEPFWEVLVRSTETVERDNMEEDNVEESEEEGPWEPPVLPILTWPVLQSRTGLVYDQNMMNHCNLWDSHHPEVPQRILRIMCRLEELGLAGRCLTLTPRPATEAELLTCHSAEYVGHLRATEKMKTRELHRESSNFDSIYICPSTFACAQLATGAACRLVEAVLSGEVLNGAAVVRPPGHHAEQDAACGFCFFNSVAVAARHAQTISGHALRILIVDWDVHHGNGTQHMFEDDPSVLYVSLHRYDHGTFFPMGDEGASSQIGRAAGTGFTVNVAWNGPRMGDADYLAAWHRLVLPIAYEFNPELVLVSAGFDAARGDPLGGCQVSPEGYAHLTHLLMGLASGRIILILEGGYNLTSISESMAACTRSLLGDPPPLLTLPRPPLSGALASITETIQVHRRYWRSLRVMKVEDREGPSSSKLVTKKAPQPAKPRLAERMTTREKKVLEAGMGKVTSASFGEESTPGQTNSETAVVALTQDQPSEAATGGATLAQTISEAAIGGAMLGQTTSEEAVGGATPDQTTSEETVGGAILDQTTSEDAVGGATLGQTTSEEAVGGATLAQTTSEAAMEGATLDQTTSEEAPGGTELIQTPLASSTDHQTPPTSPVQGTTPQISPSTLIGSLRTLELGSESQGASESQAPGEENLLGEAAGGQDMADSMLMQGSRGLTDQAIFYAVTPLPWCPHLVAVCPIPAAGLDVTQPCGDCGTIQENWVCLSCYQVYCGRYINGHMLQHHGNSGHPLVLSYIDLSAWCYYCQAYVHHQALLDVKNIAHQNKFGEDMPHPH
Description: In vitro enzymatic assay HDAC6 (Fluor de Lys). It counts as biochemical. Particulars: for HDAC6 % of inhibition at 100 µM / inhibition at 100 µM: mean ± SD (n=3); for inhibition at 100 µM: read-out: HDAC6 % of inhibition at 100 µM; for IC50: average of at least 2 independent experiments in duplicates ± SEM.

In test [1] the test system is class I HDACs (HeLa nuclear extracts). In words: HDAC activity of HeLa nuclear extracts (Fluor de Lys). The test is classed as biochemical, human.
In a further test the target is T2, HDAC2 (Homo sapiens, UniProt Q92769).
T2 construct: purchased Sigma Aldrich or Reaction Biology Corporation
T2 sequence (Q92769 whole entry): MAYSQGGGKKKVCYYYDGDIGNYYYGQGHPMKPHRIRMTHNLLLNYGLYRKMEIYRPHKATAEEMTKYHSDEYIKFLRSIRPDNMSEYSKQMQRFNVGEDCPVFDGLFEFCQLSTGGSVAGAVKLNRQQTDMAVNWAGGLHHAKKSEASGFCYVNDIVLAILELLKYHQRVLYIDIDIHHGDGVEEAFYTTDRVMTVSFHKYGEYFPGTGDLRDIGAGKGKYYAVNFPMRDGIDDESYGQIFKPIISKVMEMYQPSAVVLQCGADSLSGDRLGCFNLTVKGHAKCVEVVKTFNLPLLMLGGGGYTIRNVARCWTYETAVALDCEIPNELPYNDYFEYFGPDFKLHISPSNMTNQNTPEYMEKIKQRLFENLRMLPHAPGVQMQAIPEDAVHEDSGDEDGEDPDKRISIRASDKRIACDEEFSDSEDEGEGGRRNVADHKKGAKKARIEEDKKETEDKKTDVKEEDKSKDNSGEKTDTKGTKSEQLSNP
Description: In vitro enzymatic assay HDAC2 (Fluor de Lys). It counts as biochemical. Particulars: average of at least 2 independent experiments in duplicates ± SEM.

Another test concerns the target T3, HDAC8 (Homo sapiens, UniProt Q9BY41).
T3 construct: purchased Sigma Aldrich or Reaction Biology Corporation
T3 sequence (Q9BY41 1-377): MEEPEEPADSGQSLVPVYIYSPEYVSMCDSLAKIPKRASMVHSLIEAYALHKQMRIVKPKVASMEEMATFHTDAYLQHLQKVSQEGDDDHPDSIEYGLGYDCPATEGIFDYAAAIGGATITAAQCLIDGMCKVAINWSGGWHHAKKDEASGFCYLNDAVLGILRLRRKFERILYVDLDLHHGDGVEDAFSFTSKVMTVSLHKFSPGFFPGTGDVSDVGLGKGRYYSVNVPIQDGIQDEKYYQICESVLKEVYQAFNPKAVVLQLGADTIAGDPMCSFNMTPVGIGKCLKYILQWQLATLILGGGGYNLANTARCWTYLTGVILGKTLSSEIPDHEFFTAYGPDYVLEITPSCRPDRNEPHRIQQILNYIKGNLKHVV
In words: In vitro enzymatic assay HDAC8 (Fluor de Lys). It counts as biochemical. Particulars: average of at least 2 independent experiments in duplicates ± SEM.

A further test deals with T4, HDAC4 (Homo sapiens, UniProt P56524).
T4 construct: purchased Sigma Aldrich or Reaction Biology Corporation
T4 sequence (P56524 whole entry): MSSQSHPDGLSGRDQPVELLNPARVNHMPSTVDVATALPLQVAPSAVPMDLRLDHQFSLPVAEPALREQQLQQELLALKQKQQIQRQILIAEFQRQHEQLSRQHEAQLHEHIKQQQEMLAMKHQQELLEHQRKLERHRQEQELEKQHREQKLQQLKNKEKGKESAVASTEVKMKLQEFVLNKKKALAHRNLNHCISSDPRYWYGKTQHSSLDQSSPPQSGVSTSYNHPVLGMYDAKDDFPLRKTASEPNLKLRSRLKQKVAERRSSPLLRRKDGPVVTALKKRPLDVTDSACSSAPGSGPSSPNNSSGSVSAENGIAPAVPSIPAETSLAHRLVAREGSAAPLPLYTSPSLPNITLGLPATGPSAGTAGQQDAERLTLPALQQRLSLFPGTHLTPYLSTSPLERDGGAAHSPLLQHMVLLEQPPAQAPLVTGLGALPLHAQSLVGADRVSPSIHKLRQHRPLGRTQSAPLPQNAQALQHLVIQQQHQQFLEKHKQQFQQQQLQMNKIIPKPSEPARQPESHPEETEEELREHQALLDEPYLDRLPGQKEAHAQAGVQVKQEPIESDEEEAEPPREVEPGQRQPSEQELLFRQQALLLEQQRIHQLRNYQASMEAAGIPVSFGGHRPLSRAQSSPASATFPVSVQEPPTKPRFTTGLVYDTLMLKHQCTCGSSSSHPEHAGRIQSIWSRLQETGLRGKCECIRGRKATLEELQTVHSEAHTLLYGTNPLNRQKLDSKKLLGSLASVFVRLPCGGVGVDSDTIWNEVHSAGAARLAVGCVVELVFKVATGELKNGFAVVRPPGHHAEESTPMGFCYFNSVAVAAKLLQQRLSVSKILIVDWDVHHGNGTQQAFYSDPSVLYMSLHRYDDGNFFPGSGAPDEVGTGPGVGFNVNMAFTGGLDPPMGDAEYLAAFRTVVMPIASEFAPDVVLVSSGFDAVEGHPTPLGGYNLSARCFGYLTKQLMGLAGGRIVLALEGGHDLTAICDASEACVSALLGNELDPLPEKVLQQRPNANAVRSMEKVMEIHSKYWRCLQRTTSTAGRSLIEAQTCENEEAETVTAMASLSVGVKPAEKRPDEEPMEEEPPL
Description: In vitro enzymatic assay HDAC4 (Fluor de Lys). The test is classed as biochemical. Particulars: average of at least 2 independent experiments in duplicates ± SEM.

Where [2] appears, read: 100 μM, average of at least 3 independent experiments in duplicates (Table 1).

On to `Cn1cc(Br)c(C(=O)NN)n1` [AK-3], for which, on HDAC6, the “HDAC6 % of inhibition at 100 µM” value is given as 0.1 ± 2.3%.

`NS(=O)(=O)c1ccc(N2N=C(C(F)(F)F)/C(=C/c3ccc(-c4ccc(Cl)c(Cl)c4)o3)C2=O)cc1` [AN-1]: the “HDAC6 % of inhibition at 100 µM” value at HDAC6 is on record as -43.0 ± 11.8%.

For `NNC(=O)c1cccc(COc2ccccc2Br)c1` [AK-22], on HDAC6, the “HDAC6 % of inhibition at 100 µM” value is on record as 25.4 ± 9.7%.

As for `NNC(=O)c1cccc(COc2cc(Cl)ccc2Cl)c1` [AK-6], at HDAC6, the “HDAC6 % of inhibition at 100 µM” value was 15.3 ± 0.5%.

In the case of `Cc1nn(Cc2ccc(C(=O)NN)o2)c(C)c1Cl` [AK-11], the “HDAC6 % of inhibition at 100 µM” value on HDAC6 is on record as 5.3 ± 19.9%.

Consider `CCOc1ccc(OCc2cccc(C(=O)NN)c2)cc1` [AK-17], for which the “HDAC6 % of inhibition at 100 µM” value on HDAC6 is listed as 35.5 ± 10.5%.

Regarding `NNC(=O)c1ccc(COc2ccccc2Br)cc1` [AK-18], the “HeLa % of inhibition at 100 μM” value in test [1] (setting [2]) is 0.4 ± 3.9%. In addition, the inhibition at 100 µM on HDAC6 came out at 69 ± 2.4%. The IC50 at HDAC6 was 16.4 ± 1.1 µM; on HDAC2 it was greater than 1000 µM; at HDAC8, greater than 300 µM; at HDAC4, greater than 300 µM.

Regarding `COc1cc(/C=C2/SC(N)=NC2=O)ccc1OCc1ccc(Cl)cc1Cl` [AG-2], on HDAC6, the “HDAC6 % of inhibition at 100 µM” value is -2.8 ± 9.7% Self-fluorescence.

As to `NNC(=O)c1ccc(Cn2cc(Cl)cn2)cc1` [AK-24], in test [1] (setting [2]), the “HeLa % of inhibition at 100 μM” value came to 33.3 ± 5.4%. Further, the inhibition at 100 µM at HDAC6 is 63.1 ± 12.2%. The IC50 against HDAC6 is 74.9 ± 5.2 µM; on HDAC2, greater than 200 µM; against HDAC8, 86.9 ± 0.7 µM; against HDAC4, greater than 300 µM.

On to `NNC(=O)c1cc(Br)cs1` [AK-20], for which, on HDAC6, the “HDAC6 % of inhibition at 100 µM” value turned out to be 22.3 ± 8.7%.

With `CC(C)Oc1cccc(C(=O)NN)c1` [AK-10], the “HDAC6 % of inhibition at 100 µM” value on HDAC6 stood at 13.9 ± 17.9%.

Turning to `COc1ccccc1OCc1ccc(C(=O)NN)cc1` [AK-5], the “HeLa % of inhibition at 100 μM” value in test [1] (setting [2]) is listed as 5.8 ± 1.3%. Besides, the inhibition at 100 µM on HDAC6 turned out to be 64.4 ± 1.3%. Also, the IC50 was 45.6 ± 1.5 µM against HDAC6, greater than 200 µM against HDAC2, 130 ± 9 µM against HDAC8 and greater than 300 µM on HDAC4.

Consider `NNC(=O)C12CC3CC(C1)CC(n1cnc(Cl)n1)(C3)C2` [AK-4], for which the “HDAC6 % of inhibition at 100 µM” value on HDAC6 was determined as 3.0 ± 0.3%.

For the molecule `Cc1c(C)n(Cc2ccccc2)c2ccc(C(=O)NN)cc12` [AK-12], the “HDAC6 % of inhibition at 100 µM” value on HDAC6 is 28.2 ± 16.7%.

In the case of `NNC(=O)c1ccc(COc2ccc(Cl)cc2Cl)o1` [AK-25], the “HDAC6 % of inhibition at 100 µM” value at HDAC6 is given as 29.1 ± 10.3%.

For the molecule `CCOc1cc(/C=N/O)cc(Cl)c1OC` [AK-9], the “HDAC6 % of inhibition at 100 µM” value at HDAC6 is recorded as 8.0 ± 4.6%.

For the molecule `Cc1ccccc1COc1ccc(/C=N/NC(N)=S)cc1` [AH-2], at HDAC6, the “HDAC6 % of inhibition at 100 µM” value is reported as 12.1 ± 1.6%.

`COc1ccccc1OCc1ccc(C(=O)NN)o1` [AK-15]: the “HeLa % of inhibition at 100 μM” value in test [1] (100 µM, mean ± SD (n=3) (Table S6)) is recorded as -2.6 ± 3.0%. Also, at HDAC6, the “HDAC6 % of inhibition at 100 µM” value turned out to be 42.1 ± 23.0%.

For `CC(C)C12CC3CC(CC(C(=O)NN)(C3)C1)C2` [AF-1], the “HDAC6 % of inhibition at 100 µM” value at HDAC6 came to 5.2 ± 1.5%.

As to `NNC(=O)c1ccc(Cn2cc(Br)cn2)cc1` [AK-21], in test [1] (setting [2]), the “HeLa % of inhibition at 100 μM” value is listed as 14.7 ± 11.6%. At HDAC6, the inhibition at 100 µM is 67.9 ± 7.8%. Besides, the IC50 on HDAC6 is 30.9 ± 2.1 µM; at HDAC2, 201.7 ± 1.9 µM; against HDAC8, 74.9 ± 0.8 µM; against HDAC4 it was greater than 300 µM.
